{
  "source": "ChEMBL document CHEMBL5661943",
  "about": "“ASAP - In vitro antiviral effect” (2024)",
  "key": {"[1]": {"tested_on": "Zika virus", "experiment": "EC50 is reported via analysis of immunofluorescence staining. The assay has been performed by Icahn School of Medicine at Mount Sinai.", "assay_type": "functional, organism-based, Chlorocebus sabaeus, VeroE6/TMPRSS2", "settings": "for EC90: P-gp concentration 2 uM, P-gp inhibitor Elacidar"}, "[2]": {"tested_on": "dengue virus type 2", "experiment": "Functional assay to measure dose dependent changes in antiviral-drug inhibitory efficacy against Dengue virus type 2 New Guinea C in Vero E6 miRFP670 cells (cotreated with P-gp inhibitor, CP100356). Cells are treated with antiviral candidates that are serially diluted, following infection, cells are fixed. EC50 is reported via analysis of fluorescence intensity using high-content imager. The …", "assay_type": "organism-based, Chlorocebus sabaeus, Vero C1008", "settings": "Dengue virus; for EC90: P-gp concentration 500 nM, P-gp inhibitor CP100356"}, "[3]": {"tested_on": "dengue virus type 2", "experiment": "Functional immunofluorescence assay to measure dose dependent changes in antiviral-drug inhibitory efficacy against Dengue virus type 2 Thailand/16681/84 in Vero E6/TMPRSS2 cells (cotreated with P-gp inhibitor, Elacridar). Cells are treated with antiviral candidates that are serially diluted, following infection, cells are fixed. EC50 is reported via analysis of immunofluorescence staining. The assay has been performed by Icahn School of Medicine at Mount Sinai.", "assay_type": "organism-based, Chlorocebus sabaeus, VeroE6/TMPRSS2", "settings": "for EC90: P-gp concentration 2 uM, P-gp inhibitor Elacidar"}, "[4]": {"tested_on": "Zika virus", "experiment": "Functional CPE-based assay to measure dose dependent changes in antiviral-drug inhibitory efficacy against Zika virus MR766 in Vero E6 miRFP670 cells (cotreated with P-gp inhibitor, CP100356). Cells are treated with antiviral candidates that are serially diluted. EC50 is reported via analysis of MTS assay as a readout of CPE. The assay has been performed by KU Leuven.", "assay_type": "organism-based, Chlorocebus sabaeus, Vero C1008", "settings": "Zika virus, Vero C1008; for EC90: Baseline response 0 %, Maximum response 100 %, P-gp concentration 500 nM, P-gp inhibitor CP100356"}},
  "note": "“And” between values parts separate entries of the source, which are not always exact repeats. Equal entries are not always repeated.",
  "data": [
    {"smiles": "O=C(Nc1ccc2c(c1)CNC2)c1cc(Br)cc2[nH]ncc12", "values": [
      {"measurement": "EC90", "setting": "[1]; Baseline response 0 %, EC90 CI (lower) 1.042 uM, EC90 CI (upper) 22.584 uM, Hill slope -2.906, Maximum measured 100.475 %, Maximum response 60 %, Minimum measured 3.913 %, R squared 0.559", "result": 22, "unit": "µM"},
      {"measurement": "EC90", "setting": "[1]; Baseline response 0 %, Hill slope -0.436, Maximum measured 89.533 %, Maximum response 80 %, Minimum measured 16.256 %, R squared 0.57", "result": "> 50", "unit": "µM"},
      {"measurement": "EC50", "setting": "[1]; veroe6/tmprss2", "result": "3.73 µM and 10.3 µM"},
      {"measurement": "EC50", "setting": "[2]; Vero C1008", "result": "> 50", "unit": "µM"},
      {"measurement": "EC90", "setting": "[2]; Vero C1008, Baseline response 0 %, Hill slope -0.471, Maximum measured 107.19 %, Maximum response 100 %, Minimum measured 78.588 %, R squared 0.089", "result": "> 50", "unit": "µM"},
      {"measurement": "EC50", "setting": "[3]; Dengue virus, VeroE6/TMPRSS2", "result": "> 50", "unit": "µM"},
      {"measurement": "EC90", "setting": "[3]; Dengue virus, VeroE6/TMPRSS2, Maximum measured 186.968 %, Minimum measured 93.389 %", "result": "> 50", "unit": "µM"},
      {"measurement": "EC50", "setting": "[4]", "result": "> 50", "unit": "µM"},
      {"measurement": "EC90", "setting": "[4]; Hill slope 1.733, Maximum measured 40.291 %, Minimum measured -1.647 %, R squared 0.923", "result": "> 50", "unit": "µM"}
    ]},
    {"smiles": "O=C(NC1CCOCC1)[C@H](Nc1ccc2c(c1)CNC2)c1cc(Cl)cc(C2CC2)c1", "values": [
      {"measurement": "EC90", "setting": "[1]; Baseline response 0 %, Hill slope -0.296, Maximum measured 102.901 %, Maximum response 100 %, Minimum measured 72.878 %, R squared 0.169", "result": "> 16.7", "unit": "µM"},
      {"measurement": "EC90", "setting": "[1]; Baseline response 0 %, Hill slope -0.385, Maximum measured 147.213 %, Maximum response 4776.39 %, Minimum measured 30.718 %, R squared 0.741", "result": "< 0.023", "unit": "µM"},
      {"measurement": "EC50", "setting": "[2]; Vero C1008", "result": 36, "unit": "µM"},
      {"measurement": "EC90", "setting": "[2]; Vero C1008, Baseline response 0 %, Hill slope -0.982, Maximum measured 114.445 %, Maximum response 100 %, Minimum measured 34.266 %, R squared 0.594", "result": "> 50", "unit": "µM"},
      {"measurement": "EC50", "setting": "[3]; Dengue virus, VeroE6/TMPRSS2", "result": "> 5.56", "unit": "µM"},
      {"measurement": "EC90", "setting": "[3]; Dengue virus, VeroE6/TMPRSS2, Maximum measured 137.73 %, Minimum measured 84.756 %", "result": "> 5.56", "unit": "µM"},
      {"measurement": "EC50", "setting": "[4]", "result": 3.19, "unit": "µM"},
      {"measurement": "EC90", "setting": "[4]; EC90 CI (lower) 0.059 uM, EC90 CI (upper) 333.672 uM, Hill slope 6.678, Maximum measured 170.178 %, Minimum measured 3.055 %, R squared 0.499", "result": 4.44, "unit": "µM"}
    ]},
    {"smiles": "O=C(NC[C@H]1CCCO1)[C@H](Nc1ccc2c(c1)CNC2)c1cc(Cl)cc2[nH]ncc12", "values": [
      {"measurement": "EC50", "setting": "[1]; Zika virus, VeroE6/TMPRSS2", "result": 0.309, "unit": "µM"},
      {"measurement": "EC90", "setting": "[1]; Zika virus, VeroE6/TMPRSS2, Baseline response 0 %, Hill slope -0.364, Maximum measured 91.96 %, Maximum response 100 %, Minimum measured 21.463 %, R squared 0.587", "result": "> 16.7", "unit": "µM"},
      {"measurement": "EC50", "setting": "[2]; Vero C1008", "result": "> 6.25", "unit": "µM"},
      {"measurement": "EC90", "setting": "[2]; Vero C1008, Maximum measured 107.029 %, Minimum measured 98.467 %", "result": "> 6.25", "unit": "µM"},
      {"measurement": "EC50", "setting": "[3]; Dengue virus, VeroE6/TMPRSS2", "result": "> 16.7", "unit": "µM"},
      {"measurement": "EC90", "setting": "[3]; Dengue virus, VeroE6/TMPRSS2, Maximum measured 188.503 %, Minimum measured 79.522 %", "result": "> 16.7", "unit": "µM"},
      {"measurement": "EC50", "setting": "[4]", "result": "> 50", "unit": "µM"},
      {"measurement": "EC90", "setting": "[4]; Hill slope 0.096, Maximum measured 37.493 %, Minimum measured 16.803 %, R squared 0.054", "result": "> 50", "unit": "µM"}
    ]},
    {"smiles": "N#CCCNC(=O)[C@H](Nc1ccc2c(c1)CNC2)c1cc(Cl)cc(C2CC2)c1", "values": [
      {"measurement": "EC90", "setting": "[1]; Zika virus, VeroE6/TMPRSS2, Maximum measured 63.585 %, Minimum measured 35.457 %", "result": "> 5.56", "unit": "µM"},
      {"measurement": "EC90", "setting": "[1]; Zika virus, VeroE6/TMPRSS2, Baseline response 0 %, Hill slope -0.414, Maximum measured 108.813 %, Maximum response 100 %, Minimum measured 38.683 %, R squared 0.619", "result": "> 16.7", "unit": "µM"},
      {"measurement": "EC50", "setting": "[1]; veroe6/tmprss2", "result": "> 5.56 µM and 2.54 µM"},
      {"measurement": "EC50", "setting": "[2]; Vero C1008", "result": "> 50", "unit": "µM"},
      {"measurement": "EC90", "setting": "[2]; Vero C1008, Maximum measured 137.124 %, Minimum measured 107.523 %", "result": "> 50", "unit": "µM"},
      {"measurement": "EC50", "setting": "[3]; Dengue virus, VeroE6/TMPRSS2", "result": "> 50", "unit": "µM"},
      {"measurement": "EC90", "setting": "[3]; Dengue virus, VeroE6/TMPRSS2, Maximum measured 184.621 %, Minimum measured 81.605 %", "result": "> 50", "unit": "µM"},
      {"measurement": "EC50", "setting": "[4]", "result": 4.22, "unit": "µM"},
      {"measurement": "EC90", "setting": "[4]; EC90 CI (lower) 2.191 uM, EC90 CI (upper) 28.402 uM, Hill slope 3.509, Maximum measured 177.981 %, Minimum measured 1.478 %, R squared 0.727", "result": 7.89, "unit": "µM"}
    ]},
    {"smiles": "O=C(Nc1ccc2c(c1)CNC2)c1cc(Cl)cc2ccncc12", "values": [
      {"measurement": "EC90", "setting": "[1]; Baseline response 0 %, EC90 CI (lower) 0.484 uM, EC90 CI (upper) 78.893 uM, Hill slope -5.004, Maximum measured 134.979 %, Maximum response 50 %, Minimum measured 2.857 %, R squared 0.323", "result": 14.9, "unit": "µM"},
      {"measurement": "EC50", "setting": "[1]; Zika virus, VeroE6/TMPRSS2", "result": 16.1, "unit": "µM"},
      {"measurement": "EC90", "setting": "[1]; Zika virus, VeroE6/TMPRSS2, Baseline response 0 %, Hill slope -17.627, Maximum measured 65.213 %, Maximum response 47.14 %, Minimum measured 8.096 %, R squared 0.51", "result": 18.3, "unit": "µM"},
      {"measurement": "EC50", "setting": "[1]; veroe6/tmprss2", "result": 9.59, "unit": "µM"},
      {"measurement": "EC50", "setting": "[2]; Vero C1008", "result": 41.2, "unit": "µM"},
      {"measurement": "EC90", "setting": "[2]; Vero C1008, Baseline response 0 %, Hill slope -2.845, Maximum measured 98.374 %, Maximum response 100 %, Minimum measured 34.264 %, R squared 0.76", "result": "> 50", "unit": "µM"},
      {"measurement": "EC50", "setting": "[3]; Dengue virus, VeroE6/TMPRSS2", "result": "> 50", "unit": "µM"},
      {"measurement": "EC90", "setting": "[3]; Dengue virus, VeroE6/TMPRSS2, Maximum measured 58.239 %, Minimum measured 35.466 %", "result": "> 50", "unit": "µM"},
      {"measurement": "EC90", "setting": "[3]; Dengue virus, VeroE6/TMPRSS2, Baseline response 0 %, Hill slope -1.704, Maximum measured 164.443 %, Maximum response 150 %, Minimum measured 48.079 %, R squared 0.653", "result": "> 50", "unit": "µM"},
      {"measurement": "EC50", "setting": "[3]; veroe6/tmprss2", "result": 29.3, "unit": "µM"},
      {"measurement": "EC50", "setting": "[4]", "result": 3.67, "unit": "µM"},
      {"measurement": "EC90", "setting": "[4]; EC90 CI (lower) 1.242 uM, EC90 CI (upper) 28.049 uM, Hill slope 4.622, Maximum measured 165.724 %, Minimum measured 0.965 %, R squared 0.715", "result": 5.9, "unit": "µM"}
    ]}
  ]
}
